Results published in article PMC10108347, “Heterobifunctional Ligase Recruiters Enable pan-Degradation of Inhibitor of Apoptosis Proteins” (Journal of Medicinal Chemistry, 2023).
Where two headings read alike, the source gives them in different places. *1 amine or outer side, *2 acyl side, *3 side chain or, on linkers, in order; H or OH if unused. Where a SMILES comes first, the peptide text is derived from it. Bridges are numbered along the chain shown (N, C = ends). Roman numbers before positions name the chains, in order. [ ]: non-standard residue; d: D form. Hexamethylenediamine = C(CCCN[*:2])CCN[*:1]; dDip = N[C@@H](C(=O)O)C(c1ccccc1)c1ccccc1; Chg = N[C@H](C(=O)O)C1CCCCC1; dNMeA = CN[C@H](C)C(=O)O

Columns and labels:
[1] = system: IAPs (cIAP1, cIAP2, XIAP); experiment: Immunoblotting of IAPs in MM.1S cells, overall degradation profile, time course and washout; type: cell-based; conditions: 16 h, western blot, concentration (10 nM to 1 μM)
Experimental: Next, we examined the persistence of IAP degradation in MM.1S cells after a single exposure to 1 μM of 9 and subsequent removal of the compound. […] The reliance on CRL2^VHL was assessed with a neddylation inhibitor MLN4924, which blocks the activity of CRLs (Figure S13A).

[2] = physchem; conditions: pH 7.4
Experimental: The system was calibrated by plotting the retention times of six different drugs (atenolol, metoprolol, labetalol, diltiazem, triphenylene, and permethrin) versus their literature-known log D7.4 in a calibration line (R^2 = 0.99). Subsequently, the mean retention times of the analytes were taken to calculate their log D7.4 values with the aid of the calibration line. At least two independent measurements of each analyte were performed.

[3] = molecular target: cIAP2 (Homo sapiens, UniProt Q13489); experiment: Immunoblotting (western blot) quantification of cIAP2 levels in MM.1S cells; conditions: 16 h; for remaining activity at 0.1 µM: MM1.S
Chain of cIAP2 (Q13489 whole entry): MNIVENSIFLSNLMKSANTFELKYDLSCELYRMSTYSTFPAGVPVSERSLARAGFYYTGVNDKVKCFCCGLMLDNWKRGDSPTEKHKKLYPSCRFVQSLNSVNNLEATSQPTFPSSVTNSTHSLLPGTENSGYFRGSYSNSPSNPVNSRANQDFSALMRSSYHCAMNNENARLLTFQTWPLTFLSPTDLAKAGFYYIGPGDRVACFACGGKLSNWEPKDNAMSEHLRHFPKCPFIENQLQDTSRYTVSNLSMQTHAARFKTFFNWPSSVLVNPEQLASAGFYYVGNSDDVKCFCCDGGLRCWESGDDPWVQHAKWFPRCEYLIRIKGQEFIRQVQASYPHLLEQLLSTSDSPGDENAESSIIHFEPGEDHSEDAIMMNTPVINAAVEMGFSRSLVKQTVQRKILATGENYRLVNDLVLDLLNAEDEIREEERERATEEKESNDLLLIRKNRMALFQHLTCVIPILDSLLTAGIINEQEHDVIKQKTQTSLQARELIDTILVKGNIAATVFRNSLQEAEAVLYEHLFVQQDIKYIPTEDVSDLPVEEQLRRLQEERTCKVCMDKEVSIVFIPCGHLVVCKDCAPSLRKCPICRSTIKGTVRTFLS
Experimental: (§3) To evaluate the capability of our panel of hetero-PROTACs for E3 ligase degradation, VHL19, VHL30, CRBN, cIAP1, cIAP2, and XIAP levels were quantified by western blot analyses. […] SDS-PAGE was performed, and proteins were then transferred onto PVDF membranes. Blotted membranes were blocked with 5% milk in Tris-buffered saline/Tween20 (TBST). Primary antibodies were diluted in 5% BSA in TBST, and incubations were performed overnight at 4 °C. Secondary HRP-conjugated antibodies diluted in 5% milk were incubated for 1 h at room temperature. Detection of proteins on PVDF was carried out using the WesternBright ECL HRP substrate or the WesternBright Sirius HRP substrate (Advansta, San Jose, USA) and imaged with LAS 4000× (Fujifilm). Membranes were subjected to 10 min incubation with Restore Western Blot Stripping Buffer (Thermo Fisher Scientific, Waltham, USA), followed by TBST washes. After brief re-activation with methanol, the membranes were blocked, and further probing of proteins was carried out.
(§4) Quantification of blots was performed using ImageJ software (National Institutes of Health).

[4] = molecular target: T1, XIAP (Homo sapiens, UniProt P98170); experiment: Immunoblotting (western blot) quantification of XIAP levels in MM.1S cells; conditions: 16 h; for remaining activity at 0.1 µM: MM1.S
T1 sequence (P98170 whole entry): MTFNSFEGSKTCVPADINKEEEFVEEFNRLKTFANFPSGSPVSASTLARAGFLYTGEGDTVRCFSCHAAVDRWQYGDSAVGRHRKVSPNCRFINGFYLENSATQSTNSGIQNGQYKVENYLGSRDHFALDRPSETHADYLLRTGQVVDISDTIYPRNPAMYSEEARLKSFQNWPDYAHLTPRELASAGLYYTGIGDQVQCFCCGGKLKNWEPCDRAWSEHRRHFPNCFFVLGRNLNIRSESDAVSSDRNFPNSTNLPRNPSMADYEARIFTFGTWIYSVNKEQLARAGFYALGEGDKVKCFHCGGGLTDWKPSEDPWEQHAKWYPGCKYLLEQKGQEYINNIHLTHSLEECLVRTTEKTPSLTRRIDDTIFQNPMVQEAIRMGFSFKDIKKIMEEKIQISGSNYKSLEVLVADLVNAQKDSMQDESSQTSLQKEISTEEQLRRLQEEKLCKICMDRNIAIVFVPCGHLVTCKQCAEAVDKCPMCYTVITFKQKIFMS

[5] = molecular target: T2, cIAP1 (Homo sapiens, UniProt Q13490); experiment: Immunoblotting (western blot) quantification of cIAP1 levels in MM.1S cells; conditions: 16 h; for remaining activity at 0.1 µM: MM1.S
T2 sequence (Q13490 whole entry): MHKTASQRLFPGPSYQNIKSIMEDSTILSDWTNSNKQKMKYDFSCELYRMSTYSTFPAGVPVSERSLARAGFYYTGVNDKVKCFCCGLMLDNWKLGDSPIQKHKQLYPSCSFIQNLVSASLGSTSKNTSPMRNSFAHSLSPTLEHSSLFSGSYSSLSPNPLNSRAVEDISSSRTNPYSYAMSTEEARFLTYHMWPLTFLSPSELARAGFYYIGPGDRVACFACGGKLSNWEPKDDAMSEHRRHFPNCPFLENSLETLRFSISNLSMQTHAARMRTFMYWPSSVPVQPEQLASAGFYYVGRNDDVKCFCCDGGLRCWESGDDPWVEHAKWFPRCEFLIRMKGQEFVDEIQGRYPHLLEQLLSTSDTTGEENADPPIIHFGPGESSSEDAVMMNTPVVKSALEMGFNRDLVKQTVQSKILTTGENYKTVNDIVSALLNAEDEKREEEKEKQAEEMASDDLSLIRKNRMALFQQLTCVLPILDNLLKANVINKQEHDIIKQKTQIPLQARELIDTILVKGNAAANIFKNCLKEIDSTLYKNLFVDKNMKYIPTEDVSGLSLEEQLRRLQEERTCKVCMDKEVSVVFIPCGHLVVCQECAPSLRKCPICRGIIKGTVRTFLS
Experimental: as §3, §4

[6] = molecular target: VHL30 (Homo sapiens, UniProt P40337); experiment: Immunoblotting (western blot) quantification of VHL30 levels in MM.1S cells; conditions: for remaining activity at 0.1 µM: MM1.S, 16 h; for VHL30 degradation (in words): MM.1S cells, western blot
Chain of VHL30 (P40337 whole entry): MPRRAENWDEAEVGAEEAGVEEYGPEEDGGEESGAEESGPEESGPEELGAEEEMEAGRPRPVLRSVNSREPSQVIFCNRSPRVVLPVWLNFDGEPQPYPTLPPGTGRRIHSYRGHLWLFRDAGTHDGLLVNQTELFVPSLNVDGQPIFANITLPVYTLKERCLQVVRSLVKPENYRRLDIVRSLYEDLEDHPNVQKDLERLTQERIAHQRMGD

[7] = molecular target: VHL19 (Homo sapiens, UniProt P40337); experiment: Immunoblotting (western blot) quantification of VHL19 levels in MM.1S cells; conditions: 16 h
Chain of VHL19 (P40337 54-213): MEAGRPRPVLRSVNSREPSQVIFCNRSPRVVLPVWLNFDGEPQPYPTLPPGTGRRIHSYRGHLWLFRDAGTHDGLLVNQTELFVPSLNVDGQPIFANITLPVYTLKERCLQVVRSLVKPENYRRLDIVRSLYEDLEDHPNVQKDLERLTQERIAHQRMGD
Experimental: as §3, §4

[8] = molecular target: T1, XIAP; experiment: Immunoblotting of XIAP in HG3 wild-type and HG3 VHL-knockout cells; type: cell-based; design: endogenous in cells; host or cells: MM.1S; conditions: 1 μM, 16 h
Experimental: (§1) Next, cellular activities of hetero-PROTACs 2, 4, and 6 were evaluated in chronic lymphocytic leukemia cells (HG3), for which a VHL-knockout cell line was created (Figure 5). […] Thus, VHL knockout confirmed the involvement of E3 ubiquitin ligase CRL2^VHL in the induced degradation of XIAP (and, at least in part, cIAP1) by these IAP-VHL heterobifunctional PROTACs. This provides additional evidence that the degradation of IAPs relies on the formation of a hetero–ternary complex consisting of both ligases and the degraders.
(§2) For generation of lentiviral vectors, HEK293T cells were transfected with constructs along with the packaging and envelope vectors. Viral supernatants were harvested 48 h after transfection and were used to transduce cell lines. MM.1S and HG3 cells were transduced with virus containing pLKO5d.SSF.SpCas9.P2a.BSD, and cells were selected with blasticidin. Selected cells were then transduced with respective sgRNA constructs targeting VHL, cIAP1, cIAP2, XIAP, and negative control luciferase, which were cloned into pLKO5.hU6.sgRNA.dTom. Transduction success was confirmed through FACS analysis 48 h post-transduction with a minimum efficiency of 95% tomato fluorescence.

[9] = molecular target: T2, cIAP1; experiment: Immunoblotting of cIAP1 in HG3 wild-type and HG3 VHL-knockout cells; type: cell-based; design: endogenous in cells; host or cells: MM.1S; conditions: 1 μM, 16 h
Experimental: as §1, §2

[10] = MM.1S cells, western blot, 0.1 or 1 μM
[11] = read-out: %remaining protein VHL30, MM.1S cells, 16 h treatment at 0.1 μM, normalized to loading control and DMSO
[12] = read-out: %remaining protein cIAP2, MM.1S cells, 16 h treatment at 0.1 μM, normalized to loading control and DMSO
[13] = read-out: %remaining protein XIAP, MM.1S cells, 16 h treatment at 0.1 μM, normalized to loading control and DMSO
[14] = read-out: %remaining protein cIAP1, MM.1S cells, 16 h treatment at 0.1 μM, normalized to loading control and DMSO

| chromatographic logD [2] | cIAP2 degradation (in words) [3, 10] | XIAP degradation (in words) [4, 10] | cIAP1 degradation (in words) [5, 10] | remaining VHL19 ([7]; 1 μM) | Structure (SMILES) | IAP degradation profile (in words) [1] | remaining activity at 0.1 µM [6, 11] | VHL30 degradation (in words) [6] | remaining activity at 0.1 µM [3, 12] | remaining activity at 0.1 µM [4, 13] | remaining activity at 0.1 µM [5, 14] | XIAP degradation in VHL+/+ and VHL–/– HG3 cells (in words) [8] | VHL19 degradation (in words) ([7]; western blot) | cIAP1 degradation in VHL+/+ and VHL–/– HG3 cells (in words) [9] | remaining activity at 0.1 µM ([6]; read-out: %remaining protein VHL30) | remaining activity at 0.1 µM ([3]; read-out: %remaining protein cIAP2) | remaining activity at 0.1 µM ([4]; read-out: %remaining protein XIAP) | remaining activity at 0.1 µM ([5]; read-out: %remaining protein cIAP1) |
| --- | --- | --- | --- | --- | --- | --- | --- | --- | --- | --- | --- | --- | --- | --- | --- | --- | --- | --- |
| 3.4 | substantial degradation | failed to degrade XIAP | substantial degradation | – | CN[C@H](C)C(=O)N[C@H](C(=O)N1CCC[C@@H]1C(=O)N[C@@H](C(=O)NCCCCCCNC(=O)[C@H](NC(=O)[C@H]1CCCN1C(=O)[C@@H](NC(=O)[C@@H](C)NC)C1CCCCC1)C(c1ccccc1)c1ccccc1)C(c1ccccc1)c1ccccc1)C1CCCCC1 [BV6, reference compound] (I: H-[dNMeA][Chg][dP][dDip] / II: H-[dNMeA][Chg][dP][dDip]; linker I:C-II:C via Hexamethylenediamine) | potent cIAP autodegradation | – | – | – | – | – | – | – | – | – | – | – | – |
| – | – | – | – | 42% | CN[C@@H](C)C(=O)N[C@H](C(=O)N1C[C@@H](Oc2cccc(OCCCCC(=O)N[C@H](C(=O)N3C[C@H](O)C[C@H]3C(=O)NCc3ccc(-c4scnc4C)cc3)C(C)(C)C)c2)C[C@H]1C(=O)N[C@@H]1CCCc2ccccc21)C1CCCCC1 [PROTAC 1, (2S,4S)-1-((S)-2-Cyclohexyl-2-((S)-2-(methylamino)propanamido)acetyl)-4-(3-((5-(((S)-1-((2S,4R)-4-hydroxy-2-((4-(4-methylthiazol-5-yl)benzyl)carbamoyl)pyrrolidin-1-yl)-3,3-dimethyl-1-oxobutan-2-yl)amino)-5-oxopentyl)oxy)phenoxy)-N-((R)-1,2,3,4-tetrahydronaphthalen-1-yl)pyrrolidine-2-carboxamide] | pan-IAP degrader | 36% | strong and dose-dependent VHL30 degradation | 33% | 5% | 7% | – | – | – | – | – | – | – |
| – | – | – | – | – | CN[C@@H](C)C(=O)N[C@H](C(=O)N1C[C@@H](Oc2cccc(OCCCCCCCC(=O)N[C@H](C(=O)N3C[C@H](O)C[C@H]3C(=O)NCc3ccc(-c4scnc4C)cc3)C(C)(C)C)c2)C[C@H]1C(=O)N[C@@H]1CCCc2ccccc21)C1CCCCC1 [PROTAC 2, (2S,4S)-1-((S)-2-Cyclohexyl-2-((S)-2-(methylamino)propanamido)acetyl)-4-(3-((8-(((S)-1-((2S,4R)-4-hydroxy-2-((4-(4-methylthiazol-5-yl)benzyl)carbamoyl)pyrrolidin-1-yl)-3,3-dimethyl-1-oxobutan-2-yl)amino)-8-oxooctyl)oxy)phenoxy)-N-((R)-1,2,3,4-tetrahydronaphthalen-1-yl)pyrrolidine-2-carboxamide] | – | 28% | strong and dose-dependent VHL30 degradation | 23% | 5% | 4% | occurred only in HG3 wild-type cells | slight hook effect for VHL19 degradation | cIAP1 autodegradation was observed | – | – | – | – |
| – | – | – | – | – | CN[C@@H](C)C(=O)N[C@H](C(=O)N1C[C@@H](Oc2cccc(OCCOCCOCC(=O)N[C@H](C(=O)N3C[C@H](O)C[C@H]3C(=O)NCc3ccc(-c4scnc4C)cc3)C(C)(C)C)c2)C[C@H]1C(=O)N[C@@H]1CCCc2ccccc21)C1CCCCC1 [PROTAC 4, (2S,4S)-1-((S)-2-Cyclohexyl-2-((S)-2-(methylamino)propanamido)acetyl)-4-(3-(2-(2-(2-(((S)-1-((2S,4R)-4-hydroxy-2-((4-(4-methylthiazol-5-yl)benzyl)carbamoyl)pyrrolidin-1-yl)-3,3-dimethyl-1-oxobutan-2-yl)amino)-2-oxoethoxy)ethoxy)ethoxy)phenoxy)-N-((R)-1,2,3,4-tetrahydronaphthalen-1-yl)pyrrolidine-2-carboxamide] | – | 44% | – | 40% | 7% | 4% | occurred only in HG3 wild-type cells | – | cIAP1 autodegradation was observed | – | – | – | – |
| – | – | – | – | – | CN[C@@H](C)C(=O)N[C@H](C(=O)N1C[C@@H](Oc2cccc(OCCCCCCOCCCCCCOCC(=O)N[C@H](C(=O)N3C[C@H](O)C[C@H]3C(=O)NCc3ccc(-c4scnc4C)cc3)C(C)(C)C)c2)C[C@H]1C(=O)N[C@@H]1CCCc2ccccc21)C1CCCCC1 [PROTAC 6, (2S,4S)-1-((S)-2-Cyclohexyl-2-((S)-2-(methylamino)propanamido)acetyl)-4-(3-((6-((6-(2-(((S)-1-((2S,4R)-4-hydroxy-2-((4-(4-methylthiazol-5-yl)benzyl)carbamoyl)pyrrolidin-1-yl)-3,3-dimethyl-1-oxobutan-2-yl)amino)-2-oxoethoxy)hexyl)oxy)hexyl)oxy)phenoxy)-N-((R)-1,2,3,4-tetrahydronaphthalen-1-yl)pyrrolidine-2-carboxamide] | – | – | – | – | – | – | occurred only in HG3 wild-type cells | – | cIAP1 autodegradation was observed | 78% | 29% | 2% | 2% |
